From patent US20250011351A1, “[…] O-ACETYLPSILOCIN, SALTS AND SOLID STATE FORMS THEREOF” (Terran Biosciences Inc., priority 2021, published 2025)
Entries after “also recorded” stand apart in the source; their conditions may differ.

Columns and labels:
[1] = Dynamic vapor sorption (DVS) analysis with XRPD of the post-DVS specimen; format: physicochemical; conditions: for hygroscopicity (in words): DVS at 25° C., RH range given with the value; for solid form of the post-DVS specimen: XRPD after the DVS experiment (5 to 95% RH and back); for hydrate formation: hysteresis of the DVS curve; for overall water uptake: range between 5-95% RH
Procedure: (§1) DVS analysis was carried out using a TA Instruments Q5000 Dynamic Vapor Sorption analyzer. The instrument was calibrated with standard weights and a sodium bromide standard for humidity. Approximately 10-25 mg of sample was loaded into a metal-coated quartz pan for analysis. The sample was analyzed at 25° C. with a maximum equilibration time of one hour in 10% relative humidity (RH) steps from 5 to 95% RH (adsorption cycle) and from 95 to 5% RH (desorption cycle). The movement from one step to the next occurred either after satisfying the equilibrium criterion of 0.01% weight change or, if the equilibrium criterion was not met, after one hour. The percent weight change values were calculated using Microsoft Excel®.
as §1, with “Dynamic Vapor Sorption (DVS)” for “DVS”, “is” for “was”, “is” for “were”, “Excel.” for “Excel®.”

[2] = Estimated solubility by adding solvent in aliquots to weighed solid, dissolution judged by visual inspection; conditions: for Estimated Solubilities / Solubility: room temperature
[3] = molecular target: T1, 5-HT2A receptors (Mus musculus, UniProt P35363); assay: Psilocybin-induced head-twitch response in mice, antagonist given i.v. 7 min after psilocybin; format: in vivo, C57BL/6J mice; conditions: for effect on psilocybin-induced head-twitch response: cumulative head twitches until 40 min, groups of 3 mice; for effect on psilocybin-induced head twitch, summary of Examples 13-21: antagonist administered after psilocybin, compared to vehicle-treated mice, dose not restated; for Result (suppression of psilocybin-induced head twitch): 5HT2A antagonist i.v. at T=7 min
T1 construct: from tissue; host or cells: whole living C57BL/6J mice (in vivo behavioural assay)
T1 sequence (P35363 whole entry): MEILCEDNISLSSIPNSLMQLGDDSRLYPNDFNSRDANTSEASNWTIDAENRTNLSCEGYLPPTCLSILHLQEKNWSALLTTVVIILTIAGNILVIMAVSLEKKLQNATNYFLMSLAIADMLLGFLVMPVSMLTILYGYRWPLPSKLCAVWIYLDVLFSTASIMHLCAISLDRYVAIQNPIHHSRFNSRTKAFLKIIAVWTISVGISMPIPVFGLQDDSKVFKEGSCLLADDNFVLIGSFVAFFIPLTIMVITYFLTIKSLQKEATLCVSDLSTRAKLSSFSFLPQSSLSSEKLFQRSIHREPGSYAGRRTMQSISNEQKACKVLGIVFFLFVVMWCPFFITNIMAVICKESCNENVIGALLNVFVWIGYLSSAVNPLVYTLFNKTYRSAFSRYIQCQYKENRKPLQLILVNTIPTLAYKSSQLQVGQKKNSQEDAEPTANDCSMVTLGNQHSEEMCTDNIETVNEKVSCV
Source text: The head-shake response is elicited by a wide variety of known hallucinogens such as LSD, psilocybin, psilocin, N,N-dimethyltryptamine (DMT), and mescaline as well as serotonin-releasing agents and direct 5-HT2 agonists. […] Later studies have confirmed 5-HT2A receptors are the primary, direct mediators of the response and that the headshake response in rats is essentially the same as head-twitches in mice, at least in regards to similarity in appearance and 5-HT2A receptor dependence.
Male C57BL/6J mice (approximately 25 g) were group housed. Animals were maintained under a 12 h light/dark cycle, at 23° C. with humidity controlled.
(§2) At T=−60 min, C57BL/6J mice were individually housed into transparent observation cages with bedding removed and left to habituate. At T=−3 min, mice were placed into heated cages at 40° C. At T=0 h, groups of 3 mice were dosed intraperitoneally with psilocybin (2 mg/kg). Following dosing, mice were replaced into the heated cages and head-twitch responses continuously scored for 7 min. After 7 min, mice were intravenously dosed via the lateral tail vein with either vehicle 1 (saline) or volinanserin 1 mg/kg in 5 mL/kg dosing volumes. Mice were replaced into the observation cages and head twitch behavior were monitored until 40 min after agonist dosing. Cumulative head-twitches were measured every 2 minutes until 40 minutes after agonist dosing.
as §2, with “min. […]” for “min. After 7 min, mice were intravenously dosed via the lateral tail vein with either vehicle 1 (saline) or volinanserin 1 mg/kg in 5 mL/kg dosing volumes.”, “behavior was” for “behavior were”, “Cumulative head-twitch behavior was” for “Cumulative head-twitches were”
as §2, with “min. […]” for “min. After 7 min, mice were intravenously dosed via the lateral tail vein with either vehicle 1 (saline) or volinanserin 1 mg/kg in 5 mL/kg dosing volumes.”, “behavior was” for “behavior were”, “Cumulative head-twitch behavior was” for “Cumulative head-twitches were”
as §2, with “min. […]” for “min. After 7 min, mice were intravenously dosed via the lateral tail vein with either vehicle 1 (saline) or volinanserin 1 mg/kg in 5 mL/kg dosing volumes.”, “behavior was” for “behavior were”, “Cumulative head-twitch behavior was” for “Cumulative head-twitches were”
as §2, with “min. […]” for “min. After 7 min, mice were intravenously dosed via the lateral tail vein with either vehicle 1 (saline) or volinanserin 1 mg/kg in 5 mL/kg dosing volumes.”, “behavior was” for “behavior were”, “Cumulative head-twitch behavior was” for “Cumulative head-twitches were”
At T=−60 min, C57BL/6J mice were individually housed into transparent observation cages with bedding removed and left to habituate.

[4] = antagonist 1 mg/kg i.v. 7 min after psilocybin 2 mg/kg i.p.
[5] = psilocybin 2 mg/kg i.p., head twitches scored to 40 min
[6] = antagonist 4 mg/kg i.v. 7 min after psilocybin 2 mg/kg i.p.

Compound: Maleate
- Water uptake ([1]; 5-95% RH): ~0.8, 5-95%
- Water uptake (25-65% RH) % [1]: ~0.3%
- Water solubility ([2]; water): >50000 µg/mL

Compound: CC(=O)Oc1cccc2[nH]cc(CCN(C)C)c12.O=C(O)C(O)C(O)C(=O)O [Tartrate Form A]
- Water uptake (25-65% RH) % [1]: 0.1%
- Water uptake ([1]; 85-95% RH): 5-6% 85-95% RH
- RH at which likely hydrate formation is shown ([1]; listed as 'Other forms'): at 95% RH

Compound: N#Cc1c[nH]c2c(C(=O)N3CCN(CCc4ccc(F)cc4)CC3)cccc12 [pruvanserin]
- effect on psilocybin-induced head-twitch response [3, 4]: completely suppressed
- effect on psilocybin-induced head twitch, summary of Examples 13-21 [3]: full ending
- Result (suppression of psilocybin-induced head twitch) [3, 5]: Full suppression of head twitch

Compound: CC(=O)Oc1cccc2[nH]cc(CCN(C)C)c12.CS(=O)(=O)O [mesylate salt, Form A, O-Acetyl Psilocin Mesylate]
- hygroscopicity (in words) [1]: non-hygroscopic in the range from 5-55% RH; also recorded: highly hygroscopic material above 55% RH
- Water uptake ([1]; DVS, above 55% RH): 40%
- solid form of the post-DVS specimen [1]: a liquid

Compound: CC(=O)Oc1cccc2[nH]cc(CCN(C)C)c12.O=C(O)C(O)C(O)C(=O)O [L-tartrate salt, Form A, O-Acetyl Psilocin Tartrate]
- hygroscopicity (in words) [1]: non-hygroscopic in the range from 5-85% RH; also recorded: hygroscopic above 85% RH
- Water uptake ([1]; DVS, above 85% RH): approx. 6%
- hydrate formation ([1]; DVS, above 85% RH): consistent with hydrate formation
- hydrate formation ([1]; DVS, above 85% RH, listed as Tartrate A): possible hydrate formation
- solid form of the post-DVS specimen [1]: consistent with Form A by XRPD analysis and exhibited additional diffraction peaks

Compound: CC(=O)Oc1cccc2[nH]cc(CCN(C)C)c12.O=C(O)C(O)C(O)C(=O)O [L-tartrate, Form A]
- RH above which hygroscopic (DVS) ([1]; DVS): > 85 % RH
- RH range in which non-hygroscopic (DVS) ([1]; DVS): 5-85 % RH
- hydrate formation upon DVS ([1]; DVS, high RH): resulting in hydrate
- water uptake, DVS ([1]; above 85% RH): ~6%

Compound: COc1ccc(NC(=O)Nc2ccc(F)cc2F)cc1-c1c(Br)cnn1C [nelotanserin]
- effect on psilocybin-induced head-twitch response [3, 4]: partially suppressed
- effect on psilocybin-induced head-twitch response [3, 6]: completely suppressed; also recorded: completed suppressed
- effect on psilocybin-induced head twitch, summary of Examples 13-21 [3]: partial suppression
- Result (suppression of psilocybin-induced head twitch) [3, 5]: Partial suppression of head twitch,
- Result (suppression of psilocybin-induced head twitch) at high dose ([3]; psilocybin 2 mg/kg i.p., antagonist at high dose (4 mg/kg) i.v. at T=7 min, head twitches scored to 40 min): full suppression at high dose

Compound: CC(=O)Oc1cccc2[nH]cc(CCN(C)C)c12 [O-Acetyl Psilocin Freebase, O-Acetyl Psilocin]
- Estimated Solubilities ([2]; 1,4-dioxane): >62
- Estimated Solubilities ([2]; 2-methyltetrahydrofuran 2-Me(THF)): >50
- Estimated Solubilities ([2]; 2-propanol (2-PrOH)): >32
- Estimated Solubilities ([2]; Methyl ethyl ketone (MEK)): >51
- Estimated Solubilities ([2]; Methyl tert-butyl ether (MTBE)): >23
- Estimated Solubilities ([2]; acetone): >59
- Estimated Solubilities ([2]; acetonitrile (ACN)): >67
- Estimated Solubilities ([2]; ethanol (EtOH)): >62
- Estimated Solubilities ([2]; hexanes): <1
- Estimated Solubilities ([2]; methanol (MeOH)): >62
- Estimated Solubilities ([2]; toluene): >59
- Estimated Solubilities ([2]; water): <1

Compound: COc1cccc([C@H](O)C2CCN(CCc3ccc(F)cc3)CC2)c1OC [volinanserin]
- effect on psilocybin-induced head-twitch response [3, 4]: completely suppressed
- effect on psilocybin-induced head twitch, summary of Examples 13-21 [3]: full ending
- Result (suppression of psilocybin-induced head twitch) [3, 5]: Full suppression of head twitch

Compound: CC(=O)Oc1cccc2[nH]cc(CCN(C)C)c12.O=C(O)/C=C/C(=O)O [O-acetylpsilocin fumarate Form A, O-acetylpsilocin fumarate]
- hygroscopicity (in words) [1]: non-hygroscopic
- overall water uptake ([1]; DVS): approx. 0.1%
- Solubility ([2]; 1,4-dioxane): <1000 µg/mL
- Solubility ([2]; 2-propanol (2-PrOH)): 1000 µg/mL
- Solubility ([2]; 50:50 MeOH:water): >33000 µg/mL
- Solubility ([2]; 50:50 THF:water): >55000 µg/mL
- Solubility ([2]; 70:30 ACN:water): >75000 µg/mL
- Solubility ([2]; 70:30 acetone:water): >51000 µg/mL
- Solubility ([2]; 95:5 1,4-dioxane:water): 3000 µg/mL
- Solubility ([2]; 95:5 ACN:water): 12000 µg/mL
- Solubility ([2]; 95:5 EtOH:water): 9000 µg/mL
- Solubility ([2]; 95:5 IPA:water): 4000 µg/mL
- Solubility ([2]; 95:5 MeOH:water): >26000 µg/mL
- Solubility ([2]; 95:5 THF:water): >17000 µg/mL
- Solubility ([2]; 95:5 acetone:water): 10000 µg/mL
- Solubility ([2]; acetone): <1000 µg/mL
- Solubility ([2]; acetonitrile (ACN)): <1000 µg/mL
- Solubility ([2]; dichloromethane (DCM)): <1000 µg/mL
- Solubility ([2]; ethanol (EtOH)): 2000 µg/mL
- Solubility ([2]; ethyl acetate (EtOAc)): <1000 µg/mL
- Solubility ([2]; hexanes): <1000 µg/mL
- Solubility ([2]; methanol (MeOH)): 2000 µg/mL
- Solubility ([2]; tetrahydrofuran (THF)): 1000 µg/mL
- Solubility ([2]; toluene): <1000 µg/mL
- Solubility ([2]; water): 11000 µg/mL

Compound: CC(=O)Oc1cccc2[nH]cc(CCN(C)C)c12.O=C(O)/C=C\C(=O)O [maleate salt, Form A, O-acetyl psilocin maleate]
- hygroscopicity (in words) [1]: non-hygroscopic
- hygroscopicity (in words) ([1]; listed as maleate salt): minimal water sorption over the RH range
- overall water uptake ([1]; DVS): approx. 0.8%
- solid form of the post-DVS specimen [1]: consistent with Form A

Compound: CC(=O)Oc1cccc2[nH]cc(CCN(C)C)c12.O=C(O)C[C@H](O)C(=O)O [L-malate salt, Form B, O-Acetyl Psilocin Malate]
- hygroscopicity (in words) [1]: non-hygroscopic in the range between 5-85% RH; also recorded: hygroscopic above 850% RH
- Water uptake ([1]; DVS, above 85% RH): approx. 4.500%
- hydrate formation ([1]; DVS, above 85% RH): no hydrate formation occurred
- hydrate formation ([1]; DVS, above 85% RH, listed as Malate B): possible hydrate formation
- solid form of the post-DVS specimen [1]: consistent with Form B

Compound: Cc1nc2sccn2c(=O)c1CCN1CCC(=C(c2ccc(F)cc2)c2ccc(F)cc2)CC1 [ritanserin]
- effect on psilocybin-induced head-twitch response [3, 4]: completely suppressed
- effect on psilocybin-induced head twitch, summary of Examples 13-21 [3]: full ending
- Result (suppression of psilocybin-induced head twitch) [3, 5]: Full suppression of head twitch

Compound: O=c1[nH]c2ccccc2n1CCN1CCN(c2cccc(C(F)(F)F)c2)CC1 [flibanserin]
- effect on psilocybin-induced head-twitch response [3, 4]: partially suppressed
- effect on psilocybin-induced head-twitch response [3, 6]: partially suppressed
- effect on psilocybin-induced head twitch, summary of Examples 13-21 [3]: partial suppression
- Result (suppression of psilocybin-induced head twitch) [3, 5]: Partial suppression of head twitch

Compound: CC(=O)Oc1cccc2[nH]cc(CCN(C)C)c12.O=C(O)CC(O)C(=O)O [Malate Form B]
- Water uptake ([1]; 5-85% RH): 0.8%, 5-85% RH;
- Water uptake (25-65% RH) % [1]: ~0.3%
- Water uptake ([1]; above 85% RH): 4.5% above 85%

Compound: CN(C)CCc1c[nH]c2cccc(OP(=O)(O)O)c12 [psilocybin]
- hygroscopicity (in words) [1]: hygroscopic between 75-95% RH; also recorded: Hygroscopic above 75% RH:
- solid form of the post-DVS specimen [1]: converted to a hydrate Form B; also recorded: a hydrated form of psilocybin resulted from water sorption between 75-95% RH; also recorded: Crystalline Form B (hydrate)

Compound: O=C(c1ccc(F)cc1)C1CCN(CCn2c(=O)[nH]c3ccccc3c2=O)CC1 [ketanserin]
- effect on psilocybin-induced head-twitch response ([3]; antagonist 2 mg/kg i.v. 7 min after psilocybin 2 mg/kg i.p.): completely suppressed
